From patent publication EP3568131B1, “COMPOSITION COMPRISING 7-HYDROXYMATAIRESINOL FOR USE IN THE TREATMENT AND IN THE PREVENTION OF TRICHOLOGICAL DISEASES OF INFLAMMATORY AND/OR HORMONAL ORIGIN” (Sinerga Group S.r.l., priority 2017, dated 2018) come the findings set out here.

Like-named read-outs stand apart in the source and are kept apart here.

Series [1] concerns human hair dermal papilla cells (HHDPC). Kind of series: MTT cell viability test after cell cycle synchronization (cell proliferation). It is filed as cell-based. The settings on record: for viability at 200 µg/mL / viability at 1000 µg/mL: Homo sapiens, HHDPC, vs negative control; for viability at 200 µg/mL: 0.2 mg/ml of 5% glycerine solution; for viability at 1000 µg/mL: 1 mg/ml of 5% glycerine solution. The source says:
(§1) The purpose of the test is quantitatively establishing the effects of 7-hydroxymatairesinol (HMR) on cell proliferation and on the synthesis of total proteins in human fibroblasts of the dermal papilla through the cell viability test (MTT test) after cycle synchronization, and establishing the protein dosage at different exposure times and at different sub-toxic sample dilutions.
(§2) Dermal papilla cells derived from human hair follicle (HHDPC: human hair dermal papilla cells) with fibroblastic morphology. The cells are cultured in DMEM containing 10% FBS and antibiotics.
(§3) The cells were seeded in 24-well plates and left to grow for 24h at 37°C and 5% CO2. Then they were deprived of the serum 6 hours before the experiment for cell cycle synchronization.
(§4) After 6 hours, fresh culture medium was added without serum but containing the sample to be tested in order to reach different final dilutions. The 5% glycerine-solubilized sample was dissolved in the culture medium. The test was carried out in triplicate.
(§5) After 24 and 48 hours of exposure, the MTT cell viability test and the total protein test using the Bradford method^1 were carried out on separate plates. Untreated cells were used as a negative control (CN), while cells treated with human insulin were used as a positive control (CP).
This method was originally developed by Mossman^2. After 24 and 48 hours of treatment, cell viability was evaluated by incubating the cells with MTT (3-[4,5-dimethylthiazol-2-yl]-2,5-diphenyl tetrazolium bromide) for 2 hours.
The precipitated formazan crystals were then extracted using isopropanol or DMSO and were spectrophotometrically quantified at 570 nm against 650 nm. The absorbance was read with a colorimeter (Tecan, model Sunrise remote) equipped with a plate reader subtracting the reading of the bottom.
The cell viability was expressed as a percentage according to the formula: % of cell viability = [OD(570nm−650nm)testedproduct/OD(570nm−650nm)CN] × 100 [formula] OD: Optical density
(Tetrazolium dyes change colour on reduction, which living cells bring about.)

Series [2] deals with human fibroblasts of the dermal papilla (HHDPC). Kind of series: Total protein dosage (Bradford method). Type of series: cell-based. The settings on record: for activation at 1000 µg/mL: 1 mg/ml of 5% glycerine solution.
From the text: as §1, §2, §3, §4, §5
The protein dosage was carried out according to the Bradford method. At the end of the treatment, the cells were washed with sterile PBS and lysed by treatment with purified water at 4°C. The colouring reagent was added to the lysate. A standard curve of albumin titrated to 20, 40, 80 and 100 µg/ml was prepared in a similar manner.
Then 200 µl of each sample, controls and standards, each in triplicate, were transferred to a 96-well plate. The reading was carried out with a colorimeter (Tecan, Sunrise) equipped with a plate reader, at 595 nm.
To quantify proteins, a standard albumin calibration curve was drawn and sample concentrations were calculated using the interpolation curve formula and relative absorbances. The averages of the individual data were then calculated, and for each sample the percentage of increase in protein synthesis was calculated, with respect to the negative control: % protein synthesis increment = (μg/mlsampleprotein/μg/mlCN)∗100 [formula]

Series [3] is described as follows: MTT cytotoxicity test on reconstituted 3D epidermis. Type of series: cell-based. Conditions: human. How it is done: • Cytotoxicity through the MTT test at the end of incubation: cell survival test with 3D human epidermis reconstituted in vitro for the evaluation of the cytotoxic potential caused by the sample. • Inhibition of the release of cellular mediators of inflammation (IL-1α) after stress induced with SLS.
(§6) The cell model used for in vitro tests is represented by a three-dimensional system of reconstituted human epidermis in vitro.
(§7) This three-dimensional cellular model is made up of normal human primary keratinocytes, left to grow in vitro in order to simulate the multi-layered architecture of the human epidermis, with a well-differentiated stratum corneum. The model was purchased from CELLSYSTEMS (Troisdorf, batch 100-AE1818-1).
(§8) The skin irritation characterized by the release of IL-1α was caused by an epidermis pre-treatment for 60 minutes with SLS 0.25%.
(§9) Subsequently, 30µl of diluted sample were placed on two units and the exposure was extended for 24 hours at 37°C, 5% CO2. The sample was diluted to 0.25% in phosphate buffer.
(§10) As a negative control, two units of epidermis were treated with phosphate buffer (PBS), as a positive control two units were treated for 60' with 0.25% SLS. The test was carried out in duplicate.
At the end of the exposure, the sample and the references were removed by washing with phosphate buffer (PBS) and the cell viability was assessed.
The epidermis was incubated for 3h at 37°C with a lmg/ml solution of MTT (3- [4,5-dimethylthiazol-2-yl] -2,5-diphenyl tetrazolium bromide).
Then the solution was removed and replaced with isopropanol with subsequent 2 h incubation at room temperature.
Two aliquots of each sample were transferred to a 96-well plate for reading the absorbance, which was carried out at the wavelength of 570 nm, with a colorimeter (Tecan, model Sunrise remote) equipped with a plate reader.
The result was expressed as a cellular viability in percent according to the formula: % cell viability = [OD (570 nm) tested sample/OD (570 nm) CN] x 100

For series [4], the system named is IL-1α. Description: IL-1α release (ELISA) after SLS-induced stress on reconstituted epidermis. Type of series: cell-based, human. Conditions: for IL-1α % inhibition: vs positive control.
From the text: The study concerns the in vitro evaluation of the anti-inflammatory potential of 7-hydroxymatairesinol against the inflammatory reaction induced by moderate irritants such as sodium lauryl sulphate (SLS), using a model of human skin cells grown in vitro in multilayer.
The inhibition of the cytokine IL-1α release caused by SLS is investigated by specific ELISA tests in the presence of the tested substance compared to untreated skin samples.
as §6, §7, §8, §9, §10
For the analysis of IL-1α, samples of culture medium were taken at 6 and 24 hours. The maintenance medium of the units treated with PBS and the medium of two non-irritated skin units treated only with the sample were taken as negative control, whereas the culture medium of two skin units treated with the 0.25% SLS solution was used as a positive control.
In this study, IL-1α was dosed using the direct-type ELISA (Enzyme-linked immunosorbent assay) method, i.e. the colour development was directly proportional to the amount of cytokines in the culture medium.
The reading was carried out at 450 nm. The sensitivity limit of this test was less than 10 pg/ml.
The IL-1α concentration was determined using a standard curve as a reference. The inhibition of IL1-α release was determined as: % IL-1α inhibition: 100- (pg/ml IL-1α released from the irritated sample/pg/ml IL-1α positive control)* 100

For series [5], the system named is 5α-reductase. Description: Gene expression of 5α-reductase by qRT-PCR in testosterone-treated dermal papilla cells. The settings on record: Homo sapiens, HHDPC, 48 h. Type of series: cell-based. The source says: Measurement of the gene expression level of 5α-reductase by means of Real Time Polymerase Chain Reaction (qRT-PCR) in human cells of the dermal papilla with and without treatment with the sample. The purpose of the test is to highlight and quantify changes in gene expression of 5α-reductase levels in cell cultures exposed to treatment with the tested substance compared to controls of the same untreated cells. This enzyme is expressed in skin melanocytes, fibroblasts and keratinocytes and turns testosterone into di-hydro-testosterone, a key metabolite implicated in various skin disorders such as acne vulgaris, hirsutism, seborrhoea and androgenetic alopecia. After birth, the 5α-reductase enzyme (type 1) is expressed in multiple body areas, including liver, skin, scalp and prostate. 5α-reductase (type 2) is expressed in prostate, seminal vesicles, epididymis, liver, and, to a lesser extent, scalp and skin. In this test, the cells are previously treated with testosterone to induce 5α-reductase production and are exposed to various test substances for 48 hours. A titrated extract of Serenoa repens, a known pharmacologically active compound used to treat benign prostatic hyperplasia, is used as a positive control. The analysis is carried out through RT-qPCR (Real Time Quantitative Polymerase Chain Reaction), a very sensitive method for the detection and quantification of messenger RNA coding for the protein in analysis and therefore for the corresponding gene activation. RT-qPCR measures the fluorescence emitted by the amplicons produced during each PCR cycle. A culture of human dermal papilla (HHDPC) cells was used. The cells were grown in MEM containing 10% FBS and antibiotics. The cells were seeded in 12-well plates for 24 hours. Then they were treated for 24 hours with 10 ng/ml of testosterone. After this step, fresh culture medium containing the sample to be tested was added. The sample was dissolved directly in the culture medium. The concentrations of the sample to be tested were selected based on preliminary cytotoxicity. […] After precipitation and centrifugation (30' at 12,000 rpm at 4°C), the RNA was resuspended in 20 µl of sterile water and its concentration was determined by spectrophotometry. […] Changes in the gene expression profile are analysed by RT-qPCR using Syber Green as a fluorescent molecule. […] The detection of the fluorescence emitted in each cycle allows monitoring the PCR reaction during the exponential phase, namely where the first significant increases in the PCR product are related to the initial amount of template. […] Subsequently, data can be expressed as "fold change", namely as a ratio with respect to control (a) or as a percentage with respect to control (b). […]
On the technique in general: Quantitative PCR measures a nucleic acid by following its amplification.

[6] abbreviates: increase on fibroblasts of human dermal papilla compared to untreated cells.
[7] abbreviates: 6 h, sample 0.25% after SLS 0.25% pre-treatment.
Where [8] appears, read: 24 h, sample 0.25% after SLS 0.25% pre-treatment.

For `COc1cc(C[C@H]2C(=O)OC[C@@H]2[C@H](O)c2ccc(O)c(OC)c2)ccc1O` [HMR, 7-hydroxymatairesinol], the viability at 200 µg/mL in series [1] (24 h) was 110%; in series [1] (48 h), 119%. The viability at 1000 µg/mL stood at 99.7% in series [1] (24 h) and 105% in series [1] (48 h). Besides, the cell proliferation in series [1] (setting [6]) is on record as 19%. For the same molecule, the activation at 200 µg/mL in series [2] (Homo sapiens, Fibroblast, HHDPC, 24 h, 0.2 mg/ml of 5% glycerine solution, increase vs negative control, read-out: % protein synthesis) stood at 10.4%. Besides, the activation at 1000 µg/mL in series [2] (Homo sapiens, Fibroblast, HHDPC, 24 h, increase vs negative control, read-out: % protein synthesis) was 24.5%; in series [2] (Homo sapiens, Fibroblast, HHDPC, 48 h, increase vs negative control, read-out: % protein synthesis), 16.8%. Also, in series [2] (setting [6]), the protein synthesis is recorded as 24%. For the same molecule, the viability at 24 h in series [3] (sample 0.25% in phosphate buffer alone, 24 hours exposure, read-out: % average cell viability (ds)) was 78.2%; in series [3] (sample 0.25%, 24 hours, after 60 minutes pre-treatment with SLS 0.25%, read-out: % average cell viability (ds)), 55.9%. The “IL-1α Mean” value in series [4] (setting [7]) amounted to 19.72 pg/mL; in series [4] (6 h, sample 0.25% alone, non-irritated epidermis), 18.07 pg/mL; in series [4] (setting [8]), 97.70 pg/mL; in series [4] (24 h, sample 0.25% alone, non-irritated epidermis), 26.40 pg/mL. For the same molecule, the IL-1α % inhibition in series [4] (setting [7]) is listed as 13.94%; in series [4] (setting [8]), 51.32%. The mrna remaining at 0.01 % in series [5] (0.2 mg/ml of solution (stated as 0.01% HMR), vs untreated control, read-out: % 5a-reductase (ds) expression) amounted to 90.9%. Moreover, the inhibition at 0.01 % in series [5] (0.2 mg/ml of solution (stated as 0.01% HMR), vs untreated control, read-out: % reduction) was 9.07%. Also, the inhibition at 0.05 % in series [5] (1 mg/ml of solution (stated as 0.05% HMR), 5α-reductase mRNA vs untreated control, read-out: % reduction) was 57.1%. Besides, the mrna remaining at 0.05 % in series [5] (1 mg/ml of solution (stated as 0.05% HMR), vs untreated control, read-out: % 5a-reductase (ds) expression) was 42.9%.

For the molecule `CCCCCCCCCCCCOS(=O)(=O)[O-].[Na+]` [SLS, sodium lauryl sulphate, reference compound], the viability at 1 h in series [3] (SLS 0.25% for 60 minutes, positive control, read-out: % average cell viability (ds)) came to 50%. For the same molecule, in series [3] (positive control (SLS 0.25%), test acceptability table), the viability turned out to be 50%. Further, the “IL-1α Mean” value in series [4] (6 h, SLS 0.25% for 60 minutes, positive control) was determined as 22.92 pg/mL; in series [4] (24 h, SLS 0.25% for 60 minutes, positive control), 200.72 pg/mL.

Broadly, the viability is a read-out of living cells in per cent, often relative to untreated cells.
